Measurements as given in patent publication US10336762B2 (priority 2017, dated 2019).
Where two headings read alike, the source gives them in different places.

Legend:
TNFα = assay: cells; format: cell-based, human; conditions: LPS-stimulated human monocytes, read-out: EC50 TNF
IRAK4 enzyme = IRAK4 enzyme (Homo sapiens (Human), UniProt Q9NWZ3); assay: biochemical; format: biochemical; conditions: IRAK4 enzyme, 500 μM ATP
[1] = Homo sapiens, Monocyte, TNFα content
[2] = Homo sapiens, Monocyte, TNFα by TR-FRET

Sequence of IRAK4 enzyme (Q9NWZ3 whole entry): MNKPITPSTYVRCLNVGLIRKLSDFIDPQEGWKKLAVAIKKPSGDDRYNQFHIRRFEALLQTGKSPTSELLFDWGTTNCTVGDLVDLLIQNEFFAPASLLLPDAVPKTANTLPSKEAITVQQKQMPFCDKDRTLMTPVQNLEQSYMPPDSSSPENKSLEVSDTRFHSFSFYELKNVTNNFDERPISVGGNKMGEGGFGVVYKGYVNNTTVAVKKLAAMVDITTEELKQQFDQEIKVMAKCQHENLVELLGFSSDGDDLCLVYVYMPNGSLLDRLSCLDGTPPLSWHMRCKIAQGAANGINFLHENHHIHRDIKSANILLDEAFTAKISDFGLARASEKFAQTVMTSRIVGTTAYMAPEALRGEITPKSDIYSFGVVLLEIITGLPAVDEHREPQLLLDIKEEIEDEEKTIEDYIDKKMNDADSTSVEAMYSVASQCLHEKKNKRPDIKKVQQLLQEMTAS

For `CC(C)(O)[C@H](F)CNC(=O)c1cnc(-c2ccc3cc(C#N)cnn23)cc1NC1CC2(COC2)C1` [Example 82, (R)-4-(2-oxaspiro[3.3]heptan-6-ylamino)-6-(3-cyanopyrrolo[1,2-b]pyridazin-7-yl)-N-(2-fluoro-3-hydroxy-3-methylbutyl) nicotinamide], the EC50 (TNFα; [1]) was 79 nM and the IC50 (IRAK4 enzyme; TR-FRET) was under 1 nM.

For `CNC(=O)[C@H](F)CNC(=O)c1cnc(-c2ccc3cc(C#N)cnn23)cc1NC12CCC(O)(CC1)CC2` [Example 945, (R)-6-(3-cyanopyrrolo[1,2-b]pyridazin-7-yl)-N-(2-fluoro-3-(methylamino)-3-oxopropyl)-4-((4-hydroxybicyclo[2.2.2]octan-1-yl)amino) nicotinamide], the EC50 (TNFα; [2]) was 116 nM and the IC50 (IRAK4 enzyme; TR-FRET) was 1 nM.

For `CC(C)(O)CNC(=O)c1cnc(-c2ccc3cc(C#N)cnn23)cc1NC12CCC(O)(CC1)CC2` [Example 753, 6-(3-cyanopyrrolo[1,2-b]pyridazin-7-yl)-N-(2-hydroxy-2-methylpropyl)-4-((4-hydroxybicyclo[2.2.2]octan-1-yl)amino) nicotinamide], the EC50 (TNFα; [1]) was 225 nM and the IC50 (IRAK4 enzyme; TR-FRET (HTRF)) was 7 nM.

Work on `CC(=O)OC12CCC(Nc3cc(-c4ccc5cc(C#N)cnn45)ncc3C(=O)NC[C@@H](F)C(C)(C)O)(CC1)CC2` [Example 418, 4-((2-(3-cyanopyrrolo[1,2-b]pyridazin-7-yl)-5-(((R)-2-fluoro-3-hydroxy-3-methylbutyl)carbamoyl)pyridin-4-yl)amino)bicyclo[2.2.2]octan-1-yl acetate] yielded an EC50 (TNFα; [1]) of 36 nM and an IC50 (IRAK4 enzyme; TR-FRET (HTRF)) of 1 nM.

Compound `CC(C)(O)[C@H](F)CNC(=O)c1cnc(-c2ccc3cc(C#N)cnn23)cc1N[C@@H]1CCN(S(C)(=O)=O)C1` [Example 53, 6-(3-cyanopyrrolo[1,2-b]pyridazin-7-yl)-N-((R)-2-fluoro-3-hydroxy-3-methylbutyl)-4-(((R)-1-(methylsulfonyl)pyrrolidin-3-yl)amino)nicotinamide] has an EC50 (TNFα; [1]) of 65 nM and an IC50 (IRAK4 enzyme; TR-FRET) of under 1 nM.

`CC(C)(O)[C@H](F)CNC(=O)c1cnc(-c2ccc3cc(C#N)cnn23)cc1NC1CCN(C2CC2)CC1` [Example 115, (R)-6-(3-cyanopyrrolo[1,2-b]pyridazin-7-yl)-4-((1-cyclopropylpiperidin-4-yl)amino)-N-(2-fluoro-3-hydroxy-3-methylbutyl)nicotinamide] was tested, and the EC50 (TNFα; [1]) was 196 nM and the IC50 (IRAK4 enzyme; TR-FRET) was 4 nM.

For `CC(C)(C)Nc1cc(-c2ccc3cc(C#N)cnn23)ncc1C(=O)NC[C@@H](F)C(C)(C)O` [Example 33, (R)-4-(tert-butylamino)-6-(3-cyanopyrrolo[1,2-b]pyridazin-7-yl)-N-(2-fluoro-3-hydroxy-3-methylbutyl)nicotinamide], the EC50 (TNFα; [1]) was 29 nM and the IC50 (IRAK4 enzyme; TR-FRET) was under 1 nM.

`COC(=O)N[C@H]1C[C@H](CNC(=O)c2cnc(-c3ccc4cc(C#N)cnn34)cc2NC23CCC(O)(CC2)CC3)C1` [Example 733, methyl ((1r,3r)-3-((6-(3-cyanopyrrolo[1,2-b]pyridazin-7-yl)-4-((4-hydroxybicyclo[2.2.2]octan-1-yl)amino)nicotin-amido)methyl)cyclobutyl) carbamate] gave an EC50 (TNFα; [1]) of 248 nM and an IC50 (IRAK4 enzyme; TR-FRET (HTRF)) of 2 nM.

With `CC(C)(O)[C@H](F)CNC(=O)c1cnc(-c2ccc3cc(C#N)cnn23)cc1N[C@H]1C[C@H](CNC(=O)C2(C(F)(F)F)CC2)C1` [Example 829, 6-(3-cyanopyrrolo[1,2-b]pyridazin-7-yl)-N-((R)-2-fluoro-3-hydroxy-3-methylbutyl)-4-(((1r,3R)-3-((1-(trifluoromethyl)cyclopropane-1-carboxamido)methyl)cyclobutyl)amino) nicotinamide] the EC50 (TNFα; [2]) was 23 nM and the IC50 (IRAK4 enzyme; TR-FRET) was under 1 nM.

In the case of `CC(C)(O)[C@H](F)CNC(=O)c1cnc(-c2ccc3cc(C#N)cnn23)cc1Nc1ccc(C#N)cn1` [Example 413, (R)-4-((5-cyanopyridin-2-yl)amino)-6-(3-cyano-pyrrolo[1,2-b]pyridazin-7-yl)-N-(2-fluoro-3-hydroxy-3-methylbutyl) nicotinamide], the EC50 (TNFα; [1]) is reported as 98 nM and the IC50 (IRAK4 enzyme; TR-FRET (HTRF)) is reported as under 1 nM.

Compound `CNC(=O)c1cnc(-c2ccc3cc(C#N)cnn23)cc1NC12CCC(NC(=O)OC)(CC1)CC2` [Example 486, methyl (4-((2-(3-cyano-pyrrolo[1,2-b]pyridazin-7-yl)-5-(methylcarbamoyl)pyridin-4-yl)amino)bicyclo[2.2.2]octan-1-yl)carbamate] has an EC50 (TNFα; [1]) of 64 nM and an IC50 (IRAK4 enzyme; TR-FRET (HTRF)) of 1 nM.

Work on `CNC(=O)c1cnc(-c2ccc3cc(C#N)cnn23)cc1N[C@H]1CCC[C@@H](O)C1` [Example 512, 6-(3-cyanopyrrolo[1,2-b]pyridazin-7-yl)-4-(((1S,3R)-3-hydroxy-cyclohexyl)amino)-N-methylnicotinamide] yielded an EC50 (TNFα; [1]) of 98 nM and an IC50 (IRAK4 enzyme; TR-FRET (HTRF)) of 3 nM.

Compound `CC1(NC(=O)c2cnc(-c3ccc4cc(C#N)cnn34)cc2NC23CCC(O)(CC2)CC3)CC1` [Example 950, 6-(3-cyanopyrrolo[1,2-b]pyridazin-7-yl)-4-((4-hydroxybicyclo[2.2.2]octan-1-yl)amino)-N-(1-methylcyclopropyl) nicotinamide] has an EC50 (TNFα; [2]) of 70 nM and an IC50 (IRAK4 enzyme; TR-FRET) of 1 nM.

`CCOC(=O)N[C@H]1CC[C@H](Nc2cc(-c3ccc4cc(C#N)cnn34)ncc2C(=O)NC[C@@H](F)C(C)(C)O)CC1` [Example 292, ethyl ((1R,4r)-4-((2-(3-cyanopyrrolo[1,2-b]pyridazin-7-yl)-5-(((R)-2-fluoro-3-hydroxy-3-methylbutyl)carbamoyl)pyridin-4-yl)amino)cyclohexyl)carbamate] gave an EC50 (TNFα; [1]) of 37 nM and an IC50 (IRAK4 enzyme; TR-FRET) of 1 nM.

`CC(C)Oc1cncc(Nc2cc(-c3ccc4cc(C#N)cnn34)ncc2C(=O)NC[C@@H](F)C(C)(C)O)c1` [Example 851, (R)-6-(3-cyanopyrrolo[1,2-b]pyridazin-7-yl)-N-(2-fluoro-3-hydroxy-3-methylbutyl)-4-((5-isopropoxypyridin-3-yl)amino)nicotinamide] gave an EC50 (TNFα; [2]) of 12 nM and an IC50 (IRAK4 enzyme; TR-FRET) of under 1 nM.

With `COC(=O)CNC(=O)c1cnc(-c2ccc3cc(C#N)cnn23)cc1NC12CCC(O)(CC1)CC2` [Example 341, methyl (6-(3-cyano-pyrrolo[1,2-b]pyridazin-7-yl)-4-((4-hydroxy-bicyclo[2.2.2]octan-1-yl)amino)nicotinoyl) glycinate] the EC50 (TNFα; [1]) was 16 nM and the IC50 (IRAK4 enzyme; TR-FRET) was under 1 nM.

`CC(C)(O)[C@H](F)CNC(=O)c1cnc(-c2ccc3cc(C#N)cnn23)cc1NC1CCCC(S(C)(=O)=O)C1` (single isomer, unassigned) [Example 517] was tested, and the EC50 (TNFα; TNFα content) was 484 nM and the IC50 (IRAK4 enzyme; TR-FRET (HTRF)) was under 1 nM.

For `COC(=O)NCC1(O)CC(Nc2cc(-c3ccc4cc(C#N)cnn34)ncc2C(=O)NC[C@@H](F)C(C)(C)O)C1` (single isomer, unassigned) [Example 760], the EC50 (TNFα; TNFα content) was 33 nM and the IC50 (IRAK4 enzyme; TR-FRET (HTRF)) was under 1 nM.

In the case of `CC(C)Nc1cc(-c2ccc3cc(C#N)cnn23)ncc1C(=O)NC1COC1` [Example 7, 6-(3-cyanopyrrolo[1,2-b]pyridazin-7-yl)-4-(isopropylamino)-N-(oxetan-3-yl)nicotinamide], the EC50 (TNFα; [1]) is reported as 442 nM and the IC50 (IRAK4 enzyme; TR-FRET) is reported as 5 nM.

Work on `CC(C)(C)NC(=O)CNC(=O)c1cnc(-c2ccc3cc(C#N)cnn23)cc1NC12CCC(O)(CC1)CC2` [Example 813, N-(2-(tert-butylamino)-2-oxoethyl)-6-(3-cyano-pyrrolo[1,2-b]pyridazin-7-yl)-4-((4-hydroxy-bicyclo[2.2.2]octan-1-yl)amino)nicotinamide] yielded an EC50 (TNFα; [2]) of 92 nM and an IC50 (IRAK4 enzyme; TR-FRET) of under 1 nM.

Compound `CC(C)OC(=O)N[C@H]1CC[C@H](Nc2cc(-c3ccc4cc(C#N)cnn34)ncc2C(=O)NC[C@@H](F)C(C)(C)O)CC1` [Example 291, isopropyl ((1R,4r)-4-((2-(3-cyanopyrrolo[1,2-b]pyridazin-7-yl)-5-(((R)-2-fluoro-3-hydroxy-3-methylbutyl)carbamoyl)pyridin-4-yl)amino)cyclohexyl)carbamate] has an EC50 (TNFα; [1]) of 90 nM and an IC50 (IRAK4 enzyme; TR-FRET) of 2 nM.

`CNC(=O)c1cnc(-c2ccc3cc(C#N)cnn23)cc1NC12CCC(O)(CC1)CC2` [Example 361, 6-(3-cyanopyrrolo[1,2-b]pyridazin-7-yl)-4-((4-hydroxybicyclo[2.2.2]octan-1-yl)amino)-N-methylnicotinamide] showed an EC50 (TNFα; [1]) of 50 nM and an IC50 (IRAK4 enzyme; TR-FRET) of 1 nM.

Compound `Cc1ncoc1[C@H]1CC[C@H](Nc2cc(-c3ccc4cc(C#N)cnn34)ncc2C(=O)NC[C@@H](F)C(C)(C)O)CC1` [Example 631, 6-(3-cyanopyrrolo[1,2-b]pyridazin-7-yl)-N-((R)-2-fluoro-3-hydroxy-3-methylbutyl)-4-(((1r,4R)-4-(4-methyloxazol-5-yl)cyclohexyl)amino) nicotinamide] has an EC50 (TNFα; [1]) of 21 nM and an IC50 (IRAK4 enzyme; TR-FRET (HTRF)) of 2 nM.

`CN(C)S(=O)(=O)N1CCC(Nc2cc(-c3ccc4cc(C#N)cnn34)ncc2C(=O)NC[C@@H](F)C(C)(C)O)CC1` [Example 244, (R)-6-(3-cyanopyrrolo[1,2-b]pyridazin-7-yl)-4-((1-(N,N-dimethylsulfamoyl)piperidin-4-yl)amino)-N-(2-fluoro-3-hydroxy-3-methylbutyl) nicotinamide] gave an EC50 (TNFα; [1]) of 102 nM and an IC50 (IRAK4 enzyme; TR-FRET) of 1 nM.

`CC(C)(O)[C@H](F)CNC(=O)c1cnc(-c2ccc3cc(C#N)cnn23)cc1Nc1ccc(-c2cnco2)cc1` [Example 216, (R)-6-(3-cyanopyrrolo[1,2-b]pyridazin-7-yl)-N-(2-fluoro-3-hydroxy-3-methylbutyl)-4-((4-(oxazol-5-yl)phenyl)amino) nicotinamide] was tested, and the EC50 (TNFα; [1]) was 32 nM and the IC50 (IRAK4 enzyme; TR-FRET) was under 1 nM.

Work on `CC(C)(O)[C@H](F)CNC(=O)c1cnc(-c2ccc3cc(C#N)cnn23)cc1N[C@H]1C[C@H](CNC(=O)OCC(F)(F)F)C1` [Example 654, 2,2,2-trifluoroethyl (((1R,3r)-3-((2-(3-cyanopyrrolo[1,2-b]pyridazin-7-yl)-5-(((R)-2-fluoro-3-hydroxy-3-methylbutyl)carbamoyl)pyridin-4-yl)amino)cyclo-butyl)methyl)carbamate] yielded an EC50 (TNFα; [1]) of 15 nM and an IC50 (IRAK4 enzyme; TR-FRET (HTRF)) of under 1 nM.

Compound `COC(=O)N1CCOC[C@@H]1CNc1cc(-c2ccc3cc(C#N)cnn23)ncc1C(=O)NC[C@@H](F)C(C)(C)O` [Example 919, (S)-methyl 3-(((2-(3-cyano-pyrrolo[1,2-b]pyridazin-7-yl)-5-(((R)-2-fluoro-3-hydroxy-3-methylbutyl)carbamoyl)pyridin-4-yl)amino)methyl)morpholine-4-carboxylate] has an EC50 (TNFα; [2]) of 707 nM and an IC50 (IRAK4 enzyme; TR-FRET) of 37 nM.
